Experimental data from patent US20050009840A1 (SUGEN, INC., priority 2003, published 2005).

Target: T1, HGFR (Homo sapiens, UniProt P08581)
T1 construct: purchased Upstate 14-526
Experiment: HGFR continuous-coupled spectrophotometric assay
Type: biochemical
Settings: Table 3, column 'Ki (μM) or I (%)': cells without % sign; read-out: Ki

T1 sequence (P08581 974-1390 limits assumed): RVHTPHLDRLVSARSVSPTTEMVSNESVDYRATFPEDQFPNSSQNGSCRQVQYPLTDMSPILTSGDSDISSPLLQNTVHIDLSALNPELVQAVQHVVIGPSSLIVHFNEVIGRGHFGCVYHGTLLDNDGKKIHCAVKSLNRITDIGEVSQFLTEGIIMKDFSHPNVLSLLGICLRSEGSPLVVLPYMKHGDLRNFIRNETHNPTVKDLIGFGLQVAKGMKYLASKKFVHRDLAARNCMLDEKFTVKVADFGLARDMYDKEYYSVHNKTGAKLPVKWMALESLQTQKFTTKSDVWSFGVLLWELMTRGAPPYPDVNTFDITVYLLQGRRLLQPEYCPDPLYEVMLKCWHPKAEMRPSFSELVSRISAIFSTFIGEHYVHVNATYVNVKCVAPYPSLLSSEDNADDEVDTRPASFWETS

Ki [µM]	SMILES
0.217	COc1ccc(-c2cnc(N)c(OC(C)c3c(Cl)ccc(F)c3Cl)c2)c(OC)c1 (centres unmarked) [Example I-557, 3-[1-(2,6-Dichloro-3-fluoro-phenyl)-ethoxy]-5-(2,4-dimethoxy-phenyl)-pyridin-2-ylamine]
0.278	COc1ccccc1-c1cnc(N)c(OC(C)c2c(Cl)ccc(F)c2Cl)c1 (centres unmarked) [Example I-566, 3-[1-(2,6-Dichloro-3-fluoro-phenyl)-ethoxy]-5-(2-methoxy-phenyl)-pyridin-2-ylamine]
0.0525	CC(Oc1cc(-c2ccc(C(=O)N3CCOCC3)cc2)cnc1N)c1c(Cl)ccc(F)c1Cl (centres unmarked) [Example I-568, (4-{6-Amino-5-[1-(2,6-dichloro-3-fluoro-phenyl)-ethoxy]-pyridin-3-yl}-phenyl)-morpholin-4-yl-methanone]
0.0478	CC(Oc1cc(-c2ccc(C(=O)N3C[C@@H](C)N[C@@H](C)C3)c(Cl)c2)cnc1N)c1c(Cl)ccc(F)c1Cl (stereo partly drawn) [Example I-569, (4-{6-Amino-5-[1-(2,6-dichloro-3-fluoro-phenyl)-ethoxy]-pyridin-3-yl}-2-chloro-phenyl)-((3R,5S)-dimethyl-piperazin-1-yl)-methanone]
0.225	Cc1cc(-c2cnc(N)c(OC(C)c3c(Cl)ccc(F)c3Cl)c2)ccc1C(=O)N1C[C@@H](C)N[C@@H](C)C1 (some centres unmarked) [Example I-570]
0.22	CC(Oc1cc(-c2ccc(CN3C[C@@H](C)O[C@@H](C)C3)cc2)cnc1N)c1c(Cl)ccc(F)c1Cl (stereo partly drawn) [Example I-571, 3-[1-(2,6-Dichloro-3-fluoro-phenyl)-ethoxy]-5-[4-((2R,6S)-2,6-dimethyl-morpholin-4-ylmethyl)-phenyl]-pyridin-2-ylamine]
0.0554	CC(Oc1cc(-c2ccc(CN3CCOCC3)cc2)cnc1N)c1c(Cl)ccc(F)c1Cl (centres unmarked) [Example I-572, 3-[1-(2,6-Dichloro-3-fluoro-phenyl)-ethoxy]-5-(4-morpholin-4-ylmethyl-phenyl)-pyridin-2-ylamine]
0.0095	CC(Oc1cc(-c2ccc(C(=O)N3CCCN(C)CC3)cc2)cnc1N)c1c(Cl)ccc(F)c1Cl (centres unmarked) [Example I-603, (4-{6-Amino-5-[1-(2,6-dichloro-3-fluoro-phenyl)-ethoxy]-pyridin-3-yl}-phenyl)-(4-methyl-[1,4]-diazepan-1-yl)-methanone]
0.031	CC(Oc1cc(-c2ccc(C(=O)N3CCCNCC3)cc2)cnc1N)c1c(Cl)ccc(F)c1Cl (centres unmarked) [Example I-604, (4-{6-Amino-5-[1-(2,6-dichloro-3-fluoro-phenyl)-ethoxy]-pyridin-3-yl}-phenyl)-[1,4]diazepan-1-yl-methanone]
0.0475	CC(Oc1cc(-c2ccc(C(=O)N3CCNCC3)cc2)cnc1N)c1c(Cl)ccc(F)c1Cl (centres unmarked) [Example I-605, (4-{6-Amino-5-[1-(2,6-dichloro-3-fluoro-phenyl)-ethoxy]-pyridin-3-yl}-phenyl)-piperazin-1-yl-methanone]
0.655	C=Cc1cnc(N)c(OC(C)c2c(Cl)ccc(F)c2Cl)c1 (centres unmarked) [Example I-606, 3-[1-(2,6-Dichloro-3-fluoro-phenyl)-ethoxy]-5-vinyl-pyridin-2-ylamine]
0.058	CC(Oc1cc(-c2ccc(C(=O)N3C[C@@H](O)[C@@H](O)C3)cc2)cnc1N)c1c(Cl)ccc(F)c1Cl (stereo partly drawn) [Example I-607, (4-{6-Amino-5-[1-(2,6-dichloro-3-fluoro-phenyl)-ethoxy]-pyridin-3-yl}-phenyl)-((3R,4S)-3,4-dihydroxy-pyrrolidin-1-yl)-methanone]
0.045	CC(Oc1cc(-c2ccc(C(=O)NC3CNC3)cc2)cnc1N)c1c(Cl)ccc(F)c1Cl (centres unmarked) [Example I-609, 4-{6-Amino-5-[1-(2,6-dichloro-3-fluoro-phenyl)-ethoxy]-pyridin-3-yl}-N-azetidin-3-yl-benzamide]
0.069	CC(Oc1cc(-c2ccc(S(=O)(=O)N(C)C)cc2)cnc1N)c1c(Cl)ccc(F)c1Cl (centres unmarked) [Example I-610, 4-{6-Amino-5-[1-(2,6-dichloro-3-fluoro-phenyl)-ethoxy]-pyridin-3-yl}-N,N-dimethyl-benzenesulfonamide]
0.375	CCN1CCN(C(=O)c2ccc(-c3cnc(N)c(OC(C)c4c(F)ccc(F)c4Cl)c3)cc2)CC1 (centres unmarked) [Example I-622, (4-{6-Amino-5-[1-(2-chloro-3,6-difluoro-phenyl)-ethoxy]-pyridin-3-yl}-phenyl)-(4-ethyl-piperazin-1-yl)-methanone]
0.0554	CC(Oc1cc(-c2ccc(C(=O)N3CC4C(N)C4C3)cc2)cnc1N)c1c(Cl)ccc(F)c1Cl (centres unmarked) [Example I-635, (6-Amino-3-aza-bicyclo[3.1.0]hex-3-yl)-(4-{6-amino-5-[1-(2,6-dichloro-3-fluoro-phenyl)-ethoxy]-pyridin-3-yl}-phenyl)-methanone]
0.109	CC(Oc1cc(-c2ccc(OCCN3CCOCC3)nc2)cnc1N)c1c(Cl)ccc(F)c1Cl (centres unmarked) [Example I-636, 5-[1-(2,6-Dichloro-3-fluoro-phenyl)-ethoxy]-6′-(2-morpholin-4-yl-ethoxy)-[3,3′]bipyridinyl-6-ylamine]
0.692	CC(Oc1cc(-c2ccc(=O)n(CCN3CCCC3)c2)cnc1N)c1c(Cl)ccc(F)c1Cl (centres unmarked) [Example I-637, 6′-Amino-5′-[1-(2,6-dichloro-3-fluoro-phenyl)-ethoxy]-1-(2-pyrrolidin-1-yl-ethyl)-1H-[3,3′]-bipyridinyl-6-one]
0.094	CC(Oc1cc(-c2ccc(OCCN3CCCC3)nc2)cnc1N)c1c(Cl)ccc(F)c1Cl (centres unmarked) [Example I-638, 5-[1-(2,6-Dichloro-3-fluoro-phenyl)-ethoxy]-6′-(2-pyrrolidin-1-yl-ethoxy)-[3,3′]bipyridinyl-6-ylamine]
0.513	CC(Oc1cc(-c2ccc(=O)n(CCC3CCCN3C)c2)cnc1N)c1c(Cl)ccc(F)c1Cl (centres unmarked) [Example I-639, 6′-Amino-5′-[1-(2,6-dichloro-3-fluoro-phenyl)-ethoxy]-1-[2-(1-methyl-pyrrolidin-2-yl)-ethyl]-1H-[3,3′]bipyridinyl-6-one]
0.0432	CC(Oc1cc(-c2ccc(O)nc2)cnc1N)c1c(Cl)ccc(F)c1Cl (centres unmarked) [Example I-643, 6′-Amino-5′-[1-(2,6-dichloro-3-fluoro-phenyl)-ethoxy]-1H-[3,3′]-bipyridinyl-6-one]
0.196	CC(Oc1cc(-c2cncc(Br)c2)cnc1N)c1c(Cl)ccc(F)c1Cl (centres unmarked) [Example I-644, 5′-Bromo-5-[1-(2,6-dichloro-3-fluoro-phenyl)-ethoxy]-[3,3′]bipyridinyl-6-ylamine]
0.157	CC(Oc1cc(-c2ccc(N(C)C)cc2)cnc1N)c1c(Cl)ccc(F)c1Cl (centres unmarked) [Example I-645, 3-[1-(2,6-Dichloro-3-fluoro-phenyl)-ethoxy]-5-(4-dimethylamino-phenyl)-pyridin-2-ylamine]
0.099	COc1ncccc1-c1cnc(N)c(OC(C)c2c(Cl)ccc(F)c2Cl)c1 (centres unmarked) [Example I-646, 5-[1-(2,6-Dichloro-3-fluoro-phenyl)-ethoxy]-2′-methoxy-[3,3′]bipyridinyl-6-ylamine]
0.166	CC(Oc1cc(-c2ccc3[nH]ccc3c2)cnc1N)c1c(Cl)ccc(F)c1Cl (centres unmarked) [Example I-647, 3-[1-(2,6-Dichloro-3-fluoro-phenyl)-ethoxy]-5-(1H-indol-5-yl)-pyridin-2-ylamine]
0.553	CCC(Oc1cc(-c2ccc(C(=O)N3C[C@@H](C)N[C@@H](C)C3)cc2)cnc1N)c1c(Cl)cccc1Cl (some centres unmarked) [Example I-648, (4-{6-Amino-5-[1-(2,6-dichloro-phenyl)-propoxy]-pyridin-3-yl}-phenyl)-(3,5-dimethyl-piperazin-1-yl)-methanone]
